Columns and labels:
daidzein = test: Dihydrodaidzein biosynthesis activity in centrifuged supernatant of disrupted cell material and coenzyme dependency (Example A1); type: biochemical, Lactococcus 20-92 strain; conditions: supernatant of disrupted cells; 37° C., 2 hour; HPLC (FIG. 1)
Method: The frozen cells (67 mL bottle×2) were thawed, and centrifuged at 4° C. at 8,000 rpm for 10 minutes. The pellet was used in the test below. First, the pellet was suspended in 2 ml of a 0.1 M phosphate-potassium solution containing 1 mM PMSF (Wako Pure Chemical Industries, Ltd.), 2 mM DTT (Wako Pure Chemical Industries, Ltd.) and 5 mM sodium hydrosulfite (Wako Pure Chemical Industries, Ltd.). The suspension was supplied to two 2 ml tubes with screw caps (Assist) and pre-supplemented with […] zirconia/silica beads (BioSpec Products, Inc.). The cells were disrupted using FastPrep® FP100A (Thermo ELECTRON CORPORATION) (6500 rpm, 10 seconds, ice cooling×8). The resulting liquid was centrifuged to obtain supernatant. The suspension of disrupted cell was centrifuged at about 10,000 rpm at 4° C. for 10 minutes to obtain a supernatant, which was then diluted to 4.5 mL with 0.1 M potassium phosphate solution containing 1 mM PMSF, 2 mM DTT and 5 mM sodium hydrosulfite. This was used as an enzyme source.
An enzyme reaction mixture of the composition below was prepared, and the mixture was incubated at 37° C. for 2 hour. After incubation, 3 mL of ethyl acetate was added to the enzyme reaction mixture for extraction. After drying, the extract was dissolved by the mobile phase (eluent). The dissolved product was analyzed by HPLC. […]

dihydrodaidzein = test: Tetrahydrodaidzein biosynthesis activity in centrifuged supernatant of disrupted cell material and NADH or NADPH dependency (Example B2); type: biochemical, Lactococcus 20-92 strain; conditions: centrifuged supernatant of disrupted cells; 37° C., 2 hours; HPLC (FIG. 11)
Method: The frozen cells were thawed and centrifuged at 4° C. for 15 minutes (5,000×G). The pellet was used in the test below. First, the pellet (wet weight 2.7 g) was suspended in 10 ml of a 0.1 M phosphate-potassium solution containing 1 mM PMSF and 5 mM sodium hydrosulfite. After preheating at 37° C. for 5 minutes, lysozyme was added in an amount of 100 mg per gram of the pellet (wet weight) to cause a reaction at 37° C. for 1.5 hours. Then, an equivalent amount of 0.1 M dipotassium phosphate solution was added to the reaction mixture, and the mixture was vigorously agitated with a vortex mixer after adding zirconia-silica beads (3 ml). The cells were then disrupted with a sonicator (Branson Sonifier Cell Disruptor 200) (3 cycles of a 5-minute sonication and a 2-minute rest). The disrupted cell suspension was centrifuged at about 10,000×G for 15 minutes to obtain a supernatant, which was then used as an enzyme source. An enzyme reaction mixture of the composition below was prepared, and was incubated at 37° C. for 2 hours. After incubation, 5 mL of ethyl acetate was added to the enzyme reaction product for extraction. Then, the product was dried to prepare a sample for HPLC analysis. [table]

[1] = test system: dihydrodaidzein synthesis enzyme gene; test: Induction of expression of dihydrodaidzein synthesis enzyme gene by daidzein, RT-PCR (Example A7); type: cell-based, Lactococcus 20-92 strain; conditions: 10 mg/L daidzein in modified GAM broth, eight hours, 37° C., anaerobic; RT-PCR (FIG. 6)
Method: Sealed Lactococcus 20-92 strain kept at 4° C. was incubated for eight hours in a modified GAM broth culture medium, that contains 10 mg/L daidzein (Funakoshi Co., Ltd.) or no daidzein, at 37° C. under an anaerobic condition. 25 mL of the culture solution was transferred to a 50 mL tube, and centrifuged for ten minutes at 3500 rpm, 4° C. The culture medium was removed by decantation and cells were collected. The collected cells were immediately frozen by liquid nitrogen. Then, the entire RNA was extracted and purified using 1 mL of TRIzol solution (Invitrogen) according to the instruction. The purified entire RNA was processed by DNase I (Invitrogen) to remove the genome DNA, and used for synthesis of first-strand cDNA.
From 2 μg of the entire RNA thus processed by DNaseI, the first-strand cDNA (reverse transcription) was synthesized using SuperScript® First-Strand Synthesis System for RT-PCR (Invitrogen). The synthesis of the first-strand cDNA was carried out using Random Hexamer mix as an extension primer according to the instruction. […] The final reaction liquid was used as a template for RT-PCR.
The dihydrodaidzein synthesis enzyme gene was amplified through RT-PCR using the four final reaction products as detailed in (2) of the present Example as templates. The expression amounts were compared with each other. […]

Structure (SMILES) | coenzyme dependency of the conversion of daidzein into dihydrodaidzein (daidzein) | coenzyme dependency of the conversion of dihydrodaidzein into tetrahydrodaidzein (dihydrodaidzein) | expression of mRNA of dihydrodaidzein synthesis enzyme gene [1]
NC(=O)C1=CN([C@@H]2O[C@H](COP(=O)(O)OP(=O)(O)OC[C@H]3O[C@@H](n4cnc5c(N)ncnc54)[C@H](O)[C@@H]3O)[C@@H](O)[C@H]2O)C=CC1 [NADH] | dependent | dependent | 
O=c1c(-c2ccc(O)cc2)coc2cc(O)ccc12 [daidzein, 4′,7-dihydroxy isoflavone] |  |  | induced the expression of mRNA

From patent publication US8669088B2, “Enzyme associated with equol synthesis” (Otsuka Pharmaceutical Co., Ltd., priority 2007, dated 2014)
